# Source: patent publication US20070074295A1 (priority 2000, published 2007)
# Tested on: freely moving rats
# Assay: Induction and maintenance of PCP-induced hypofunction: LCGU by 14C-2-deoxyglucose autoradiography
# Assay type: in vivo, rat
# Procedure: An initial treatment period of intraperitoneal (i.p.) injections once daily for 5 days was carried out, followed by a maintenance schedule of i.p. injections three times weekly (every 60 hours) for a further 21 days.
# Intermittent exposure to PCP during the maintenance phase of the model was favoured due to the long half life of the drug within brain tissue (Misra, A. L. et al). […] As a comparison to the present model, the inventors also investigated the effect of previously published subchronic treatment with PCP (Jentsch, J. D. et al) using quantitative C-2-deoxyglucose autoradiography (Sokoloff, L.)
# Local cerebral glucose utilisation (LCGU) was measured using an adaptation of the original method for freely moving rats (Crane, A. M. et al) 72 hours after the initial induction phase (day 8) and 72 hours after the induction phase followed by the maintenance phase (day 29). LCGU was measured 72 hours after the last exposure to PCP so the effects of PCP on LCGU would be independent of the acute effects of the drug. […] Thus, using a dose of 2.59 mgkg^−1 the inventors had established a novel treatment paradigm which mimics the findings of human imaging studies in schizophrenic patients.
structure (smiles),measurement,setting,value
"c1ccc(C2(N3CCCCC3)CCCCC2)cc1 [PCP, phencyclidine]","LCGU, Au layers V & VI","0.86 mgkg^−1 PCP i.p., day 29",137 ± 10 μmol/100 g/min
same,"LCGU, AuD layer I","0.86 mgkg^−1 PCP i.p., day 29",159 ± 11 μmol/100 g/min
same,"LCGU, AuD layers II, III&IV","0.86 mgkg^−1 PCP i.p., day 29",178 ± 10 μmol/100 g/min
same,"LCGU, AuD layers V & VI","0.86 mgkg^−1 PCP i.p., day 29",128 ± 9 μmol/100 g/min
same,"LCGU, DLL","0.86 mgkg^−1 PCP i.p., day 29",116 ± 8 μmol/100 g/min
same,"LCGU, MD","0.86 mgkg^−1 PCP i.p., day 29",122 ± 5 μmol/100 g/min
same,"LCGU, PrL layer I","0.86 mgkg^−1 PCP i.p., day 29",133 ± 2 μmol/100 g/min
same,"LCGU, PrL layers II & III","0.86 mgkg^−1 PCP i.p., day 29",149 ± 2 μmol/100 g/min
same,"LCGU, PrL layers V & VI","0.86 mgkg^−1 PCP i.p., day 29",112 ± 3 μmol/100 g/min
same,"LCGU, Rt","0.86 mgkg^−1 PCP i.p., day 29",108 ± 4 μmol/100 g/min
same,"LCGU, VLL","0.86 mgkg^−1 PCP i.p., day 29",118 ± 13 μmol/100 g/min
same,"LCGU, cochlear nucleus","0.86 mgkg^−1 PCP i.p., day 29",117 ± 2 μmol/100 g/min
same,"LCGU, mO layer","0.86 mgkg^−1 PCP i.p., day 29",122 ± 3 μmol/100 g/min
same,"LCGU, mO layers II & III","0.86 mgkg^−1 PCP i.p., day 29",135 ± 4 μmol/100 g/min
same,"LCGU, mO layers V & VI","0.86 mgkg^−1 PCP i.p., day 29",136 ± 3 μmol/100 g/min
same,"LCGU, Au layer I","2.58 mgkg^−1 PCP i.p., day 8",135 ± 3 μmol/100 g/min
same,"LCGU, Au layers II, III&IV","2.58 mgkg^−1 PCP i.p., day 8",166 ± 5 μmol/100 g/min
same,"LCGU, Au layers V & VI","2.58 mgkg^−1 PCP i.p., day 8",120 ± 4 μmol/100 g/min
same,"LCGU, AuD layer I","2.58 mgkg^−1 PCP i.p., day 8",135 ± 3 μmol/100 g/min
same,"LCGU, AuD layers II, III&IV","2.58 mgkg^−1 PCP i.p., day 8",151 ± 4 μmol/100 g/min
same,"LCGU, AuD layers V & VI","2.58 mgkg^−1 PCP i.p., day 8",104 ± 2 μmol/100 g/min
same,"LCGU, DLL","2.58 mgkg^−1 PCP i.p., day 8",83 ± 4 μmol/100 g/min
same,"LCGU, MD","2.58 mgkg^−1 PCP i.p., day 8",115 ± 4 μmol/100 g/min
same,"LCGU, PrL layer I","2.58 mgkg^−1 PCP i.p., day 8",104 ± 2 μmol/100 g/min
same,"LCGU, PrL layers II & III","2.58 mgkg^−1 PCP i.p., day 8",133 ± 2 μmol/100 g/min
same,"LCGU, PrL layers V & VI","2.58 mgkg^−1 PCP i.p., day 8",96 ± 3 μmol/100 g/min
same,"LCGU, Rt","2.58 mgkg^−1 PCP i.p., day 8",86 ± 2 μmol/100 g/min
same,"LCGU, VLL","2.58 mgkg^−1 PCP i.p., day 8",93 ± 3 μmol/100 g/min
same,"LCGU, cochlear nucleus","2.58 mgkg^−1 PCP i.p., day 8",98 ± 3 μmol/100 g/min
same,"LCGU, mO layer","2.58 mgkg^−1 PCP i.p., day 8",105 ± 4 μmol/100 g/min
same,"LCGU, mO layers II & III","2.58 mgkg^−1 PCP i.p., day 8",127 ± 5 μmol/100 g/min
same,"LCGU, mO layers V & VI","2.58 mgkg^−1 PCP i.p., day 8",115 ± 1 μmol/100 g/min
same,"LCGU, Au layer I","2.58 mgkg^−1 PCP i.p., day 29",137 ± 5 μmol/100 g/min
same,"LCGU, Au layers II, III&IV","2.58 mgkg^−1 PCP i.p., day 29",162 ± 6 μmol/100 g/min
same,"LCGU, Au layers V & VI","2.58 mgkg^−1 PCP i.p., day 29",115 ± 3 μmol/100 g/min
same,"LCGU, AuD layer I","2.58 mgkg^−1 PCP i.p., day 29",130 ± 7 μmol/100 g/min
same,"LCGU, AuD layers II, III&IV","2.58 mgkg^−1 PCP i.p., day 29",146 ± 7 μmol/100 g/min
same,"LCGU, AuD layers V & VI","2.58 mgkg^−1 PCP i.p., day 29",101 ± 4 μmol/100 g/min
same,"LCGU, DLL","2.58 mgkg^−1 PCP i.p., day 29",96 ± 5 μmol/100 g/min
same,"LCGU, MD","2.58 mgkg^−1 PCP i.p., day 29",116 ± 3 μmol/100 g/min
same,"LCGU, PrL layer I","2.58 mgkg^−1 PCP i.p., day 29",107 ± 4 μmol/100 g/min
same,"LCGU, PrL layers II & III","2.58 mgkg^−1 PCP i.p., day 29",116 ± 1 μmol/100 g/min
same,"LCGU, PrL layers V & VI","2.58 mgkg^−1 PCP i.p., day 29",89 ± 2 μmol/100 g/min
same,"LCGU, Rt","2.58 mgkg^−1 PCP i.p., day 29",89 ± 2 μmol/100 g/min
same,"LCGU, VLL","2.58 mgkg^−1 PCP i.p., day 29",99 ± 4 μmol/100 g/min
same,"LCGU, cochlear nucleus","2.58 mgkg^−1 PCP i.p., day 29",94 ± 4 μmol/100 g/min
same,"LCGU, mO layer","2.58 mgkg^−1 PCP i.p., day 29",108 ± 5 μmol/100 g/min
same,"LCGU, mO layers II & III","2.58 mgkg^−1 PCP i.p., day 29",124 ± 5 μmol/100 g/min
same,"LCGU, mO layers V & VI","2.58 mgkg^−1 PCP i.p., day 29",111 ± 3 μmol/100 g/min
same,"LCGU in medial orbital cortex, prelimbic cortex, auditory pathway, reticular nucleus of the thalamus","2.58 mgkg^−1 PCP, after both phases of the model",induced a metabolic hypofunction
same,effect on LCGU within any brain area,subchronic PCP 5 mgkg^−1 twice daily for seven days (data not shown),did not produce any significant effect
